pIC50: −log10 of the molar value.
Assay: Inhibition of recombinant human IL-17A/IL-17AR protein-protein interaction using TMB substrate compound added on IL17A precoated plate and followed by IL-17AR addition by ELISA

Compound	pIC50
CO[C@]1(C)C[C@H](O[C@H]2[C@H](C)[C@@H](O[C@@H]3O[C@H](C)C[C@H](N(C)C)[C@H]3O)[C@](C)(O)C[C@@H](C)CN(C)C(=O)C[C@@H](Cc3ccc(NC(=O)[C@H](Cc4ccccc4Cl)NC(=O)NCc4cccc(F)c4)cc3)NC(=O)[C@H](C(C)C)NC(=O)[C@@H]2C)O[C@@H](C)[C@@H]1O	7.32
CO[C@]1(C)C[C@H](O[C@H]2[C@H](C)[C@@H](O[C@@H]3O[C@H](C)C[C@H](N(C)C)[C@H]3O)[C@](C)(O)C[C@@H](C)CN(C)C(=O)C[C@@H](Cc3ccc(NC(=O)[C@H](Cc4ccccc4Cl)NC(=O)C(C)c4ccccc4)cc3)NC(=O)[C@H](C(C)C)NC(=O)[C@@H]2C)O[C@@H](C)[C@@H]1O (some centres not stated)	6.61
CO[C@]1(C)C[C@H](O[C@H]2[C@H](C)[C@@H](O[C@@H]3O[C@H](C)C[C@H](N(C)C)[C@H]3O)[C@](C)(O)C[C@@H](C)CN(C)C(=O)C[C@@H](Cc3ccc(NC(=O)[C@H](Cc4ccccc4Cl)NS(=O)(=O)Cc4ccccc4)cc3)NC(=O)[C@H](C(C)C)NC(=O)[C@@H]2C)O[C@@H](C)[C@@H]1O	5.59
CO[C@]1(C)C[C@H](O[C@H]2[C@H](C)[C@@H](O[C@@H]3O[C@H](C)C[C@H](N(C)C)[C@H]3O)[C@](C)(O)C[C@@H](C)CN(C)C(=O)C[C@@H](Cc3ccc(NC(=O)[C@H](Cc4ccccc4C)NC(=O)Cc4ccccc4)cc3)NC(=O)[C@H](C(C)C)NC(=O)[C@@H]2C)O[C@@H](C)[C@@H]1O	6.31
CO[C@]1(C)C[C@H](O[C@H]2[C@H](C)[C@@H](O[C@@H]3O[C@H](C)C[C@H](N(C)C)[C@H]3O)[C@](C)(O)C[C@@H](C)CN(C)C(=O)C[C@@H](Cc3ccc(NC(=O)[C@H](Cc4c(Cl)cccc4Cl)NC(=O)Cc4ccccc4)cc3)NC(=O)[C@H](C(C)C)NC(=O)[C@@H]2C)O[C@@H](C)[C@@H]1O	6.78
CO[C@]1(C)C[C@H](O[C@H]2[C@H](C)[C@@H](O[C@@H]3O[C@H](C)C[C@H](N(C)C)[C@H]3O)[C@](C)(O)C[C@@H](C)CN(C)C(=O)C[C@@H](Cc3ccc(NC(=O)[C@H](Cc4ccccc4Cl)NC(=O)COc4ccccc4)cc3)NC(=O)[C@H](C(C)C)NC(=O)[C@@H]2C)O[C@@H](C)[C@@H]1O	5.96
CO[C@]1(C)C[C@H](O[C@H]2[C@H](C)[C@@H](O[C@@H]3O[C@H](C)C[C@H](N(C)C)[C@H]3O)[C@](C)(O)C[C@@H](C)CN(C)C(=O)C[C@@H](Cc3ccc(NC(=O)[C@H](Cc4ccccc4Cl)NC(=O)Cc4ccc(C)cc4)cc3)NC(=O)[C@H](C(C)C)NC(=O)[C@@H]2C)O[C@@H](C)[C@@H]1O	6.61
CO[C@]1(C)C[C@H](O[C@H]2[C@H](C)[C@@H](O[C@@H]3O[C@H](C)C[C@H](N(C)C)[C@H]3O)[C@](C)(O)C[C@@H](C)CN(C)C(=O)C[C@@H](Cc3ccc(NC(=O)[C@H](Cc4ccccc4F)NC(=O)Cc4ccccc4)cc3)NC(=O)[C@H](C(C)C)NC(=O)[C@@H]2C)O[C@@H](C)[C@@H]1O	6.50
CO[C@]1(C)C[C@H](O[C@H]2[C@H](C)[C@@H](O[C@@H]3O[C@H](C)C[C@H](N(C)C)[C@H]3O)[C@](C)(O)C[C@@H](C)CN(C)C(=O)C[C@@H](Cc3ccc(NC(=O)[C@H](Cc4ccccc4Cl)NC(=O)Cc4cccc(C#N)c4)cc3)NC(=O)[C@H](C(C)C)NC(=O)[C@@H]2C)O[C@@H](C)[C@@H]1O	6.33
CO[C@]1(C)C[C@H](O[C@H]2[C@H](C)[C@@H](O[C@@H]3O[C@H](C)C[C@H](N(C)C)[C@H]3O)[C@](C)(O)C[C@@H](C)CN(C)C(=O)C[C@@H](Cc3ccc(NC(=O)[C@H](Cc4ccccc4Cl)NC(=O)Cc4ccc(C#N)cc4)cc3)NC(=O)[C@H](C(C)C)NC(=O)[C@@H]2C)O[C@@H](C)[C@@H]1O	6.52
CO[C@]1(C)C[C@H](O[C@H]2[C@H](C)[C@@H](O[C@@H]3O[C@H](C)C[C@H](N(C)C)[C@H]3O)[C@](C)(O)C[C@@H](C)CN(C)C(=O)C[C@@H](Cc3ccc(NC(=O)[C@H](Cc4ccccc4Cl)NC(=O)C(O)c4ccccc4)cc3)NC(=O)[C@H](C(C)C)NC(=O)[C@@H]2C)O[C@@H](C)[C@@H]1O (some centres not stated)	5.93
CO[C@]1(C)C[C@H](O[C@H]2[C@H](C)[C@@H](O[C@@H]3O[C@H](C)C[C@H](N(C)C)[C@H]3O)[C@](C)(O)C[C@@H](C)CN(C)C(=O)C[C@@H](Cc3ccc(NC(=O)[C@H](Cc4ccccc4Cl)NC(=O)Cc4cccc(C)c4)cc3)NC(=O)[C@H](C(C)C)NC(=O)[C@@H]2C)O[C@@H](C)[C@@H]1O	7.11
CO[C@]1(C)C[C@H](O[C@H]2[C@H](C)[C@@H](O[C@@H]3O[C@H](C)C[C@H](N(C)C)[C@H]3O)[C@](C)(O)C[C@@H](C)CN(C)C(=O)C[C@@H](Cc3ccc(NC(=O)[C@H](Cc4ccccc4Cl)NC(=O)Nc4ccc(F)cc4)cc3)NC(=O)[C@H](C(C)C)NC(=O)[C@@H]2C)O[C@@H](C)[C@@H]1O	6.49
CO[C@]1(C)C[C@H](O[C@H]2[C@H](C)[C@@H](O[C@@H]3O[C@H](C)C[C@H](N(C)C)[C@H]3O)[C@](C)(O)C[C@@H](C)CN(C)C(=O)C[C@@H](Cc3ccc(NC(=O)[C@H](Cc4ccccc4Cl)NC(=O)c4ccccc4)cc3)NC(=O)[C@H](C(C)C)NC(=O)[C@@H]2C)O[C@@H](C)[C@@H]1O	6.49
CO[C@]1(C)C[C@H](O[C@H]2[C@H](C)[C@@H](O[C@@H]3O[C@H](C)C[C@H](N(C)C)[C@H]3O)[C@](C)(O)C[C@@H](C)CN(C)C(=O)C[C@@H](Cc3ccc(NC(=O)[C@H](Cc4ccccc4Cl)NC(=O)Cc4ccc(S(C)(=O)=O)cc4)cc3)NC(=O)[C@H](C(C)C)NC(=O)[C@@H]2C)O[C@@H](C)[C@@H]1O	6.02
CO[C@]1(C)C[C@H](O[C@H]2[C@H](C)[C@@H](O[C@@H]3O[C@H](C)C[C@H](N(C)C)[C@H]3O)[C@](C)(O)C[C@@H](C)CN(C)C(=O)C[C@@H](Cc3ccc(NC(=O)[C@H](Cc4ccccc4Cl)NC(=O)NCc4ccccc4F)cc3)NC(=O)[C@H](C(C)C)NC(=O)[C@@H]2C)O[C@@H](C)[C@@H]1O	6.46
COc1ccc(C2(C(=O)N[C@@H](Cc3ccccc3Cl)C(=O)Nc3ccc(C[C@@H]4CC(=O)N(C)C[C@H](C)C[C@@](C)(O)[C@H](O[C@@H]5O[C@H](C)C[C@H](N(C)C)[C@H]5O)[C@@H](C)[C@H](O[C@H]5C[C@@](C)(OC)[C@@H](O)[C@H](C)O5)[C@@H](C)C(=O)N[C@@H](C(C)C)C(=O)N4)cc3)CC2)cc1	5.27
CO[C@]1(C)C[C@H](O[C@H]2[C@H](C)[C@@H](O[C@@H]3O[C@H](C)C[C@H](N(C)C)[C@H]3O)[C@](C)(O)C[C@@H](C)CN(C)C(=O)C[C@@H](Cc3ccc(NC(=O)[C@H](Cc4ccccc4Cl)NC(=O)Nc4ccccc4F)cc3)NC(=O)[C@H](C(C)C)NC(=O)[C@@H]2C)O[C@@H](C)[C@@H]1O	7.52
CO[C@]1(C)C[C@H](O[C@H]2[C@H](C)[C@@H](O[C@@H]3O[C@H](C)C[C@H](N(C)C)[C@H]3O)[C@](C)(O)C[C@@H](C)CN(C)C(=O)C[C@@H](Cc3ccc(NC(=O)[C@H](Cc4ccccc4Cl)NC(=O)Cc4ccc(C(=O)O)cc4)cc3)NC(=O)[C@H](C(C)C)NC(=O)[C@@H]2C)O[C@@H](C)[C@@H]1O	< 5.00
CO[C@]1(C)C[C@H](O[C@H]2[C@H](C)[C@@H](O[C@@H]3O[C@H](C)C[C@H](N(C)C)[C@H]3O)[C@](C)(O)C[C@@H](C)CN(C)C(=O)C[C@@H](Cc3ccc(NC(=O)[C@H](Cc4ccc(Cl)cc4Cl)NC(=O)Cc4ccccc4)cc3)NC(=O)[C@H](C(C)C)NC(=O)[C@@H]2C)O[C@@H](C)[C@@H]1O	6.68
CO[C@]1(C)C[C@H](O[C@H]2[C@H](C)[C@@H](O[C@@H]3O[C@H](C)C[C@H](N(C)C)[C@H]3O)[C@](C)(O)C[C@@H](C)CN(C)C(=O)C[C@@H](Cc3ccc(NC(=O)[C@H](Cc4ccccc4Cl)NC(=O)Cc4ccccc4F)cc3)NC(=O)[C@H](C(C)C)NC(=O)[C@@H]2C)O[C@@H](C)[C@@H]1O	6.70
CO[C@]1(C)C[C@H](O[C@H]2[C@H](C)[C@@H](O[C@@H]3O[C@H](C)C[C@H](N(C)C)[C@H]3O)[C@](C)(O)C[C@@H](C)CN(C)C(=O)C[C@@H](Cc3ccc(NC(=O)[C@H](Cc4ccccc4Cl)NC(=O)Nc4cccc(F)c4)cc3)NC(=O)[C@H](C(C)C)NC(=O)[C@@H]2C)O[C@@H](C)[C@@H]1O	6.26
CO[C@]1(C)C[C@H](O[C@H]2[C@H](C)[C@@H](O[C@@H]3O[C@H](C)C[C@H](N(C)C)[C@H]3O)[C@](C)(O)C[C@@H](C)CN(C)C(=O)C[C@@H](Cc3ccc(NC(=O)[C@H](Cc4ccccc4Cl)NC(=O)Cc4cccc(S(C)(=O)=O)c4)cc3)NC(=O)[C@H](C(C)C)NC(=O)[C@@H]2C)O[C@@H](C)[C@@H]1O	5.80
CO[C@]1(C)C[C@H](O[C@H]2[C@H](C)[C@@H](O[C@@H]3O[C@H](C)C[C@H](N(C)C)[C@H]3O)[C@](C)(O)C[C@@H](C)CN(C)C(=O)C[C@@H](Cc3ccc(NC(=O)[C@H](Cc4ccccc4Cl)NC(=O)NCc4ccc(F)cc4)cc3)NC(=O)[C@H](C(C)C)NC(=O)[C@@H]2C)O[C@@H](C)[C@@H]1O	6.75
CO[C@]1(C)C[C@H](O[C@H]2[C@H](C)[C@@H](O[C@@H]3O[C@H](C)C[C@H](N(C)C)[C@H]3O)[C@](C)(O)C[C@@H](C)CN(C)C(=O)C[C@@H](Cc3ccc(NC(=O)[C@H](Cc4ccccc4Cl)NC(=O)OCc4ccccc4)cc3)NC(=O)[C@H](C(C)C)NC(=O)[C@@H]2C)O[C@@H](C)[C@@H]1O	7.23
CO[C@]1(C)C[C@H](O[C@H]2[C@H](C)[C@@H](O[C@@H]3O[C@H](C)C[C@H](N(C)C)[C@H]3O)[C@](C)(O)C[C@@H](C)CN(C)C(=O)C[C@@H](Cc3ccc(NC(=O)[C@H](Cc4ccccc4Cl)NC(=O)Cc4cccc(F)c4)cc3)NC(=O)[C@H](C(C)C)NC(=O)[C@@H]2C)O[C@@H](C)[C@@H]1O	7.10
CO[C@]1(C)C[C@H](O[C@H]2[C@H](C)[C@@H](O[C@@H]3O[C@H](C)C[C@H](N(C)C)[C@H]3O)[C@](C)(O)C[C@@H](C)CN(C)C(=O)C[C@@H](Cc3ccc(NC(=O)[C@H](Cc4ccccc4Cl)NC(=O)Cc4ccc(F)cc4)cc3)NC(=O)[C@H](C(C)C)NC(=O)[C@@H]2C)O[C@@H](C)[C@@H]1O	6.24
